pEC50, pIC50: −log10 of the molar value. Calls of active or inactive are those of the source.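 The calls were made as follows: active = compounds giving half or more protection of infected cells from virus-caused growth loss, again on retest; inactive = the rest.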
Test system: CEM cells HIV-1 protection, formazan growth assay
Test: NCI AIDS Antiviral Assay
Details: for pIC50: measured here: growth of uninfected CEM cells
Summary of the method: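 Human CEM cells, uninfected and HIV-1-infected, exposed to five drug concentrations; growth measured by soluble formazan assay and scored as percent protection from infection, with protecting compounds retested.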

Row | SMILES | pEC50 | pIC50 | outcome
1 | CC1OC2=N[C@@H]1C(=O)N[C@@H](C(C)C)C1=N[C@H](C(=O)N[C@@H](C(C)C)C3=N[C@H](C(=O)N[C@@H](C(C)C)C4=N[C@H](C(=O)N[C@H]2C(C)C)C(C)O4)C(C)O3)C(C)O1 (stereo not given in full) | < 3.70 | < 3.70 | 
2 | NCCN.O=C([O-])C(=O)[O-].O=C([O-])C(=O)[O-].[Co+3].[K+] | < 3.43 | 3.57 | 
3 | CC(C)C12OC1CC13OC1C1OC1C1OC132 (stereo not given) | < 3.70 | < 3.70 | 
4 | O=Nc1c2n[nH]c1CCCCCCCCC2 | < 3.51 | 4.35 | 
5 | COCN1COCN=C1NC#N | < 3.28 | < 3.28 | 
6 | Cc1cn(C2CC(N=[N+]=[N-])C(COC(=O)CCCCCCCCCCBr)O2)c(=O)[nH]c1=O (stereo not given) |  | 3.96 | active
7 | CC1=C(\C=C/C(C)=C/C=C/C(C)=C/C=C/C=C(C)\C=C\C=C(C)/C=C/C2=C(C)CCCC2(C)C)C(C)(C)CCC1 | < 3.70 | 4.01 | 
8 | CCOC(=O)N1C(=S)C(C(=O)OC)(C(=O)OC)N=C1C | < 3.70 | < 3.70 | 
9 | OC1(C(Sc2ccccc2)Sc2ccccc2)CCCCCC1 |  |  | inactive
10 | O=c1cc(-c2ccccc2)oc2cc(OCCSCCCCCCCCCCSCCOc3ccc4c(=O)cc(-c5ccccc5)oc4c3)ccc12 | < 5.71 | < 5.71 | 
11 | COC(=O)c1ccccc1C1CN=NC12Cc1ccc(C)c(C)c1C2=O (stereo not given) | < 3.70 | 4.43 | 
12 | O=C1CN=C(c2ccccc2)c2cc(Cl)ccc2N1 | < 4.58 | < 4.58 | 
13 | CC(=O)NC(CCCCNC(=O)OCc1ccccc1)C(=O)O (stereo not given) | < 3.11 | < 3.11 | 
14 | CCNCC(O)c1ccc(N)c([N+](=O)[O-])c1 (stereo not given) | < 3.70 | < 3.70 | 
15 | O=S(=O)(SCc1ccccc1)C(c1ccccc1)c1ccccc1 | < 3.98 | 5.20 | 
16 | NC(=O)c1sc2nc3ccccc3n2c1N | < 3.70 | < 3.70 | 
17 | Clc1nc2cc3c(cc2n2cccc12)oc1ccccc13 | < 3.70 | < 3.70 | 
18 | CC(C)(Cc1ccccc1)NC1=NCCO1 | < 3.70 | < 3.70 | 
19 | CCc1nnc(CC)n1N1C(=O)CCC1=O | < 3.70 | < 3.70 | 
20 | Cc1ccc(C(=O)Nc2ccc(S(=O)(=O)O)c3cc(S(=O)(=O)O)cc(S(=O)(=O)O)c23)cc1NC(=O)c1cccc(NC(=S)Nc2cccc(C(=O)Nc3cc(C(=O)Nc4ccc(S(=O)(=O)O)c5cc(S(=O)(=O)O)cc(S(=O)(=O)O)c45)ccc3C)c2)c1 | 4.00 | 3.27 | 
21 | FC(F)(Sc1ncc[nH]1)c1nc2ccccc2o1 | 4.36 | < 3.70 | 
22 | CC(C)(C)OC(=O)CN1CCNCCN(CC(=O)OC(C)(C)C)CC1 | < 3.70 | 4.42 | 
23 | O/N=C1\CCCC\C1=C/c1ccccc1 |  |  | inactive

Row | SMILES | pEC50 | pIC50 | outcome
24 | Cc1cccc(C2OC(=O)c3c2ccc2ccccc32)c1 (stereo not given) |  |  | inactive
25 | Cn1cnc2ccccc2c1=S | < 3.70 | 3.74 | 
26 | Cc1cc(N=Nc2ccc(NC(=O)c3ccc(NC(=O)c4ccccc4)cc3)c3ccc(S(=O)(=O)O)cc23)ccc1N=Nc1ccc2c(O)cc(S(=O)(=O)O)cc2c1 | < 4.30 | < 4.30 | 
27 | OC(c1ccsc1)c1ccsc1 | < 3.70 | < 3.70 | 
28 | COC(=O)c1ccccc1CC(Cc1ccc2c(c1)CCC2)C(=O)OC (stereo not given) | < 3.70 | 4.25 | 
29 | CC(CO)/[N+]([O-])=N/O (stereo not given) | < 3.32 |  | 
30 | O=C(Nc1cccc(C2=NCCN2)c1)Nc1cccc(C2=NCCN2)c1 | < 3.70 | 4.49 | 
31 | COc1c2c3c(c(OC)c1OC)-c1ccc(O)cc1C3=NCC2 |  |  | inactive
32 | O=C(COc1ccc(Cl)cc1)c1ccccc1 | < 3.00 | < 3.00 | 
33 | CCOC(OC1=C(C#N)CCCC1)C(CC)[Se]c1ccccc1 (stereo not given) | < 3.88 | 4.17 | 
34 | CC(C)N(C(C)C)[PH+]1O[PH+](N(C(C)C)C(C)C)O[PH+](N(C(C)C)C(C)C)O[PH+](N(C(C)C)C(C)C)O1.[C-]#[O+].[C-]#[O+].[C-]#[O+].[C-]#[O+].[C-]#[O+].[C-]#[O+].[C-]#[O+].[C-]#[O+].[Mo].[Mo] (stereo not given) | < 4.45 | < 4.45 | 
35 | COc1ccc(C=C2C(=O)NC(=O)NC2=O)cc1OCc1ccccc1 | < 3.70 | 4.61 | 
36 | O=C1C=CC2CCC1C2 (stereo not given) |  |  | inactive
37 | O=c1c(OS(=O)(=O)O)c(-c2ccc(OS(=O)(=O)O)cc2OS(=O)(=O)O)oc2cc(OS(=O)(=O)O)cc(OS(=O)(=O)O)c12 | < 4.00 | < 4.00 | 
38 | CC(=O)N1CCOC12N=NC(C)(C)O2 (stereo not given) | < 3.70 | < 3.70 | 
39 | COc1nc(C)nc2sc3c(c12)CCCC3 | < 4.00 | < 4.00 | 
40 | Cc1nnc(SCC2=C(C(=O)O)N3C(=O)C(NC(=O)Cn4cc(Cl)c(=O)c(Cl)c4)C3SC2)s1 (stereo not given) | < 3.70 | < 3.70 | 
41 | COc1ccccc1NC(=O)/C(=C/C1CC(=O)NC1=S)C(C)=O (stereo not given) | < 3.70 | < 3.70 | 
42 | C=CCCCCOC1C=CC(O)C(CO)O1 (stereo not given) | < 3.70 | < 3.70 | 
43 | CN(/N=C/c1cccc2cccnc12)c1ccccc1 |  |  | inactive
44 | O=C1/C(=C/c2cccc([N+](=O)[O-])c2)COc2ccc(Br)cc21 | < 4.98 | < 4.98 | 
45 | NC(=S)N/N=C/c1cc(=O)c2cc(Cl)ccc2o1 | < 4.18 | < 4.18 | 
46 | CCCCN=C(OC1C=CCCC1)SC (stereo not given) | < 3.70 | 3.81 | 

Row | SMILES | pEC50 | pIC50 | outcome
47 | CC(=NNC(=S)Nc1ccc(C)cc1)c1cccc(C(C)=NNC(=S)Nc2ccc(C)cc2)n1 | < 3.70 | 4.82 | 
48 | COc1ccc2c(=O)c([Se]c3coc4cc(OC)ccc4c3=O)coc2c1 | < 4.22 | < 4.22 | 
49 | CC(=O)OCc1cc(OC(C)=O)cnc1COC(C)=O | < 3.33 | < 3.33 | 
50 | CCc1c(Cc2ccccc2)n(COCC[Se]c2ccccc2)c(=O)[nH]c1=O | 5.37 | 4.54 | 
51 | CCc1n[nH]c(=O)n1N1C(=O)C2CCCCC2C1=O (stereo not given) | < 3.70 | < 3.70 | 
52 | CN(Cc1ccccc1)C(=NC#N)N(C)Cc1ccccc1 | < 3.77 | 3.89 | 
53 | O=C1Oc2c(ccc3ccccc23)C2OCNCC12 (stereo not given) | < 3.70 | 3.89 | 
54 | Cc1c(OCCCOc2ccc3c(=O)cc(-c4ccccc4)oc3c2C)ccc2c(=O)cc(-c3ccccc3)oc12 | < 4.60 | < 4.60 | 
55 | Nc1nc2nsnc2nc1N | < 3.62 | < 3.62 | 
56 | Cc1cc2c(cc1C)[n+]([O-])c(NCCCN(C)C)c(C#N)[n+]2[O-] | < 3.70 | 4.14 | 
57 | CC(C1CCCC1=O)C1CCCC1=O (stereo not given) |  |  | inactive
58 | C/C(=C\CNc1ncnc2c1ncn2CCC(=O)OC(C)(C)C)CO | < 3.70 | < 3.70 | 
59 | CCOC(=O)CC(C(=O)OCC)S(=O)(=O)O (stereo not given) | < 3.70 | < 3.70 | 
60 | CN(C)C(=S)N/N=C\C(=N/NC(=S)N(C)C)c1ccccc1 | < 3.70 | 4.89 | 
61 | Cc1ccc2nn(-c3ccc(O)cc3)[n+]([O-])c2c1 | < 3.70 | < 3.70 | 
62 | CCC1CC2CN3CCc4c([nH]c5ccccc45)C(C(=O)OC)(C2)C13 (stereo not given) |  |  | inactive
63 | N#CC(C(=O)CCC(=O)Nc1ccc(Cl)cc1)c1ccccc1Cl (stereo not given) | < 3.73 | < 3.73 | 
64 | CCOC(=O)c1c(SC(=O)/C=C/c2ccccc2)n(-c2ccccc2)c(=S)n(-c2ccccc2)c1=O | < 3.70 | 4.10 | 
65 | O=C1C2=C(C(=O)C3=C1C1CCC3C1)C1CCC2C1 | < 3.70 | 5.23 | 
66 | COc1cc(C2C3=C(COC3=O)Oc3cc4c(cc32)OCO4)cc(OC)c1O (stereo not given) | < 5.70 | 7.25 | 
67 | Cc1cccc2c1CCC21OC(=O)c2c1ccc1ccccc21 (stereo not given) |  |  | inactive
68 | O=P(O)(O)C(N=C(Nc1ccccc1)Nc1ccccc1)P(=O)(O)O | < 4.00 | < 4.00 | 
69 | C[CH2][Sn]([CH2]C)([O]C(=O)c1ccc(F)cc1)[O]C(=O)c1ccc(F)cc1 | < 3.96 | 5.44 | 

Row | SMILES | pEC50 | pIC50 | outcome
70 | CC1(C)Cc2c(C#N)c(N)c3c(c2CO1)C(=O)OC3=O | < 4.72 | < 4.72 | 
71 | Oc1ccccc1-n1nc2ccc3nonc3c2n1 | < 3.70 | < 3.70 | 
72 | CC(=O)Nc1sc(Br)cc1S(=O)(=O)c1ccc(Cl)cc1 | < 3.70 | 4.50 | 
73 | S=c1n(-c2ccc(Cl)cc2)c2nc3ccccc3nc(/c2=N\Nc2cc(Cl)ccc2Cl)n1-c1ccccn1 | < 3.70 | 4.74 | 
74 | c1ccc2cc3c(NC4=NCCO4)cccc3cc2c1 | < 3.70 | 4.19 | 
75 | O=C(NCCN1CCCCC1)c1cccc(I)c1 | < 3.70 | < 3.70 | 
76 | CCCCCCCC1(N=[N+]=[N-])C(=O)Nc2ccccc2C1=O (stereo not given) | < 3.70 | 4.70 | 
77 | O=C(O)C1CC=CCC1c1c2ccc(=O)cc-2oc2cc(O)ccc12 (stereo not given) | 5.40 | 3.85 | 
78 | CCC1=NC(N/N=C/c2ccco2)=N/C1=C\c1ccccc1O | < 4.30 |  | 
79 | CCCCCCOC(=O)CC1CC(C(C)=O)C1(C)C (stereo not given) | < 3.70 | < 3.70 | 
80 | CC(C)(C)[Si](C)(C)OCC1OC(n2ccc(=O)[nH]c2=O)C(O[Si](C)(C)C(C)(C)C)[C@]12N[C@H](C(N)=O)CS2 (stereo not given in full) | < 3.70 | 5.28 | 
81 | COC1Cc2c(C)c(OC(C)=O)c3cccnc3c2O1 (stereo not given) | < 3.70 | 4.65 | 
82 | NC(=O)Nc1c([N+](=O)[O-])cc(C(F)(F)F)cc1[N+](=O)[O-] |  |  | inactive
83 | COc1cccc(NC(=O)C(=O)C2C=CCS2(=O)=O)c1 (stereo not given) | < 4.20 | < 4.20 | 
84 | CC1(Nc2ccccc2)OC(=O)c2ccccc21 (stereo not given) | < 3.70 | < 3.70 | 
85 | Cc1ccc(N=NN(C)C)cc1NC(=O)NCC(=O)OC(C)(C)C | < 3.70 | 3.97 | 
86 | COCc1cc(=O)oc2c3c(c4c(c12)OC(C)(C)C=C4)O[C@H](C)[C@@H](C)[C@H]3O | 3.76 | 3.74 | 
87 | CCOC(=O)C1COc2cc(-c3cc(=O)c4ccccc4o3)ccc2O1 (stereo not given) |  |  | inactive
88 | CC1=C2C(=C(CBr)OS1(=O)=O)C(=O)c1ccccc12 | < 3.13 | 4.41 | 
89 | O=C1OCCC1C(O)C1c2ccccc2-c2ccccc21 (stereo not given) | < 3.47 | < 3.47 | 
